Type in all cases: cell-based
In one test the test system is androgen receptor (AR). In words: AR ELISA assay in LNCaP and/or VCaP cells. Particulars: 5 hours. The procedure:
4. AR ELISA Assay Protocol for Table 6
Compounds were evaluated in this assay in LNCaP and/or VCaP cells utilizing similar protocols. The protocols used with VCaP cells are described below. The androgen receptor ELISA assay was performed using PathScani AR Sandwich ELISA (Cell Signaling Catalog #12850) according to the following assay steps:
VCaP cells were seeded at 40,000 cells/well at a volume of 100 μL/well in VCaP assay medium [Phenol red free RPMI (Gibco Cat #11835-030); 5% Charcoal Stripped (Dextran treated) FBS (Omega Scientific, Cat #FB-04); 1% penstrep (Life Technologies, Gibco Cat #: 10378-016)] in Corning 3904 plates. The cells were incubated for a minimum of 3 days. Cells were dosed with PROTACs diluted in 0.01% DMSO and the drug treatment was allowed for 5 hours.
AR ELISA (Cell Signaling) was performed as follows: 1× Cell Signaling Cell lysis buffer was made (Catalogue #9803; comes with the kit). Media from the treated wells is aspirated, and 100 μL 1× cell lysis buffer/well is added. The cells were placed on a shaker for 10 minutes at 4° C. Twenty microliters of lysate was transferred to 100 μl of Diluent in ELISA plate (0.15 μg/ml-0.075 μg/ml). The lysate-diluent mixture was shaken for 30 minutes at 37° C. Allow mouse AR antibody, anti-mouse antibody, TMB, and STOP solution to come to room temperature. The 1× ELISA buffer included in kit was made and loaded in the reservoir. Media from the plates was discarded, the ELISA plate tapped hard on paper towel, and washed 4×200 μl ELISA wash buffer using a plate washer.
One-hundred (100) μL/well of mouse AR detection Ab was added; the plates were covered and shaken at 37° C. for 1 hour; media was discarded from the plates, the plates were tapped on a paper towel, washed 4× with 200 μL ELISA wash buffer with a plate washer.
One-hundred (100) μL/well of anti-mouse—HRP conjugated Ab (comes with the kit) was added; the plates were covered and shaken at 37° C. for 30 minutes; the TMB reagent was allowed to come to room temperature; the media was discard from the plate, the plates were tapped on paper towl, washed 4× with 200 μL of ELISA wash buffer; the plates were tapped the plates on paper towl. One-hundred (100) μL of TMB was added and the plates shaken for 2 minutes—while watching for color development. One-hundred (100) μL Stop solution was added when light blue color developed. Plates were shaken and read at 450 nm.
Progression of prostate cancer in patients treated with anti-androgen therapy usually involves one of several mechanisms of enhanced Androgen Receptor (AR) signaling, including increased intratumoral androgen synthesis, increased AR expression and AR mutations. PROTACs (PROteolysis TArgeting Chimera), which use bi-functional molecules that simultaneously bind a target of choice and an E3 ligase, cause ubiquitination via induced proximity and degradation of the targeted, pathological protein. As opposed to traditional target inhibition, which is a competitive process, degradation is a progressive process. As such, it is less susceptible to increases in endogenous ligand, target expression, or mutations in the target. Thus, this technology appears to be ideal for addressing the mechanisms of AR resistance in patients with prostate cancer. Data was analyzed and plotted using GraphPad Prism software.
A general note: ELISA stands for enzyme-linked immunosorbent assay.

The next test deals with T1, BRaf (Homo sapiens, UniProt P15056, V600E).
T1 construct: endogenous in cells; host or cells: A375 cells
T1 sequence (P15056 whole entry V600E): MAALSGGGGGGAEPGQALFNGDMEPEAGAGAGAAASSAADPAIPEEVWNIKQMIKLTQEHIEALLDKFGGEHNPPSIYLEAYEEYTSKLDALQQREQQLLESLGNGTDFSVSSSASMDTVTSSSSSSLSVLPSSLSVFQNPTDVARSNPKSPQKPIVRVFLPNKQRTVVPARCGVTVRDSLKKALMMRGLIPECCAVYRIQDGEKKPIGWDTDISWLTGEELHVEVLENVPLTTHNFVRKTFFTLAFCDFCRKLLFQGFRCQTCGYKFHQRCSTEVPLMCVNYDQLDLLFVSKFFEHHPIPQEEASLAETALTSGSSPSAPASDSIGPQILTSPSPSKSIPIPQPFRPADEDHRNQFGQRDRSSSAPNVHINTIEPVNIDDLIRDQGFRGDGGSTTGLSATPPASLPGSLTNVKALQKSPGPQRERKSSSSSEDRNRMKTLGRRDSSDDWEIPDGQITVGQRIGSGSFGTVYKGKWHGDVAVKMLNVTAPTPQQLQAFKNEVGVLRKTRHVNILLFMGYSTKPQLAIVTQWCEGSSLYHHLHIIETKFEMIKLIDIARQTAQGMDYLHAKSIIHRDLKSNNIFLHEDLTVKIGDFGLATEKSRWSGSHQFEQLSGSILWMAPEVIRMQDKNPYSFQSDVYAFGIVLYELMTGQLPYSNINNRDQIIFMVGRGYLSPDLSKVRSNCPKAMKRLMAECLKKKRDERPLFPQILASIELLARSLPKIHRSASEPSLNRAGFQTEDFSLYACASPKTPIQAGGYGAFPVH
T1 sequence (Q96SW2 whole entry partner): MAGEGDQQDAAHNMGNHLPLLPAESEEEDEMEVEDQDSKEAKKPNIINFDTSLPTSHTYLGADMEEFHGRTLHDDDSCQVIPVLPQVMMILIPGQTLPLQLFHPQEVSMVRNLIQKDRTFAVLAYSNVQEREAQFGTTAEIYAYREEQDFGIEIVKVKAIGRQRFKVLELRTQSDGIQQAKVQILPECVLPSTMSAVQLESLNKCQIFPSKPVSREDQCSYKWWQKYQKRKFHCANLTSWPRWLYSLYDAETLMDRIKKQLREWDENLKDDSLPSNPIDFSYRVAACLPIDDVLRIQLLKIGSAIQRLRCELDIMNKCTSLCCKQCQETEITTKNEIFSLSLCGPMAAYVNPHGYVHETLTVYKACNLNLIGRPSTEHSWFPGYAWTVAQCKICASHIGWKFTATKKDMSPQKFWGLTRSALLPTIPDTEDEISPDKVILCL
In words: BRaf protein degradation assay in A375 cells (western blot / In-Cell Western). Particulars: for Dmax: A-375. The method, then:
5. BRaf Protein In Vitro Degradation Assay (A375 Cells) of Table 7
A375 cells were cultured in ATCC DMEM+10% FBS in 12 well plates, and treated with indicated compound from Tables 1-41 or 0.1% DMSO vehicle control for 16 hours. Cells were harvested in Cell Signaling lysis buffer (Cat #9803) with the addition of Roche protease inhibitor tablets (Cat #11873580001), and lysates clarified by microcentrifugation. Proteins were separated by SDS-PAGE, and transferred onto nitrocellulose membranes using an Invitrogen iBlot system. Immunoblotting was performed for BRaf (Santa Cruz Cat #9002), CRAF (BD Cat #610151), and pErk (Cell Signaling Cat #9106). GAPDH (Cell Signaling Cat #2118) was used as a loading control. Quantification was carried out using the BioRad Image Lab 5 software.
6. BRaf In-Cell Western Cellular Degradation Assay (A375 Cells) of Table 7
A375 cells were cultured in ATCC DMEM+10% FBS in 96-well plates, and treated with indicated compounds from Tables-43 or 0.1% DMSO vehicle control for 72 hours. Cells were washed with PBS 1×, and affixed to plate using 4% PFA in phosphate buffered saline for 15 minutes; washed 1× and permeabilized using 0.1% Triton-X-100 in PBS for 5 minutes; washed 1× and blocked with LICOR blocker (Cat. #927-50000) for 1 hour. Cells were then incubated with B-Raf antibody (Santa Cruz Cat #9002, Santa Cruz Cat #528) and tubulin antibody (Sigma #T6074) in LICOR blocker for 18 hours. Cells were washed 3× prior to adding secondary antibodies (LICOR cat #926-32210 and 926-68071) and incubated for 1 hour. Cells were washed 3× and imaged using LICOR Odyssey Software.
(In general: A western blot detects proteins with antibodies after separation by electrophoresis.)

A further test deals with T2, BRD4 (Homo sapiens, UniProt O60885).
T2 construct: 22Rv-1 or VCaP cells were purchased from ATCC and cultured in Dulbecco's Modified Eagle's Medium; host or cells: 22Rv-1 or VCaP cells
Description: BRD4 Western protocol in 22Rv-1 or VCaP cells. Particulars: 16 hours, western blot. The method, then:
7. BRD4 Western Protocol for Table 8
22Rv-1 or VCaP cells were purchased from ATCC and cultured in Dulbecco's Modified Eagle's Medium (ATCC), supplemented with 10% FBS (ATCC) and Penicillin/Streptomycin (Life Technologies). DMSO control and compound treatments (0.003 μM, 0.01 μM, 0.03 μM and 0.1 μM) were performed in 12-well plates for 16 hours. Cells were harvested, and lysed in RIPA buffer (50 mM Tris pH8, 150 mM NaCl, 1% Tx-100, 0.1% SDS, 0.5% sodium deoxycholate) supplemented with protease and phosphatase inhibitors. Lysates were clarified at 16,000 g for 10 minutes, and protein concentration was determined. Equal amount of protein (20 μg) was subjected to SDS-PAGE analysis and followed by immunoblotting according to standard protocols. The antibodies used were BRD4 (Cell Signaling #13440), and Actin (Sigma #5441). Detection reagents were Clarity Western ECL substrate (Bio-rad #170-5060).

Consider `CC1(C)[C@H](NC(=O)c2ccc(N3CCC(CCN4CCN(c5ncc6c(n5)C(=O)N(C5CCC(=O)NC5=O)C6=O)CC4)CC3)cc2)C(C)(C)[C@H]1Oc1ccc(C#N)c(Cl)c1` (mixture of isomers) [compound 52, (rac)-N-((1r,3r)-3-(3-chloro-4-cyanophenoxy)-2,2,4,4-tetramethylcyclobutyl)-4-(4-(2-(4-(6-(2,6-dioxopiperidin-3-yl)-5,7-dioxo-6,7-dihydro-5H-pyrrolo[3,4-d]pyrimidin-2-yl)piperazin-1-yl)ethyl)piperidin-1-yl)benzamide], for which, in the test with androgen receptor (AR), the “AR Dmax” value is given as “B (50 <= B < 75)” and the DC50 was less than 1 nM.

Regarding `O=C1CCC(N2C(=O)c3cc(N4CCN(c5ccc(-n6cc(-c7ccc8c(c7)CC/C8=N\O)c(-c7ccncc7)n6)cc5)CC4)cc(-c4ccccc4)c3C2=O)C(=O)N1` (stereo not shown) [compound 39, (E)-2-(2,6-dioxopiperidin-3-yl)-6-(4-(4-(4-(1-(hydroxyimino)-2,3-dihydro-1H-inden-5-yl)-3-(pyridin-4-yl)-1H-pyrazol-1-yl)phenyl)piperazin-1-yl)-4-phenylisoindoline-1,3-dione], at BRaf, the DC50 lay in the range of 10 to 100 nM and the Dmax fell in the range of 50 to 75%.

Turning to `Cc1cc2c(cc1N1CCN(c3ccc(-n4cc(-c5ccc6c(c5)CC/C6=N\O)c(-c5ccncc5)n4)cc3)CC1)C(=O)N(C1CCC(=O)NC1=O)C2=O` (stereo not shown) [compound 40, (E)-2-(2,6-dioxopiperidin-3-yl)-5-(4-(4-(4-(1-(hydroxyimino)-2,3-dihydro-1H-inden-5-yl)-3-(pyridin-4-yl)-1H-pyrazol-1-yl)phenyl)pipeiazin-1-yl)-6-methylisoindoline-1,3-dione], at BRaf, the DC50 lay within 10 to 100 nM and the Dmax was not below 75%.

On BRaf, `O=C1CCC(N2C(=O)c3ccc(N4CCN(c5ccc(-n6cc(-c7ccc8c(c7)CC/C8=N\O)c(-c7ccncc7)n6)cc5)CC4)c(-c4ccccc4)c3C2=O)C(=O)N1` (stereo not shown) [compound 41, (E)-2-(2,6-dioxopiperidin-3-yl)-5-(4-(4-(4-(1-(hydroxyimino)-2,3-dihydro-1H-inden-5-yl)-3-(pyridin-4-yl)-1H-pyrazol-1-yl)phenyl)piperazin-1-yl)-4-phenylisoindoline-1,3-dione] displayed a DC50 of 10 to 100 nM and a Dmax not below 75%.

For `Cc1c(N2CCN(c3ccc(-n4cc(-c5ccc6c(c5)CC/C6=N\O)c(-c5ccncc5)n4)cc3)CC2)ccc2c1C(=O)N(C1CCC(=O)NC1=O)C2=O` (stereo not shown) [compound 42, (E)-2-(2,6-dioxopiperidin-3-yl)-5-(4-(4-(4-(1-(hydroxyimino)-2,3-dihydro-1H-inden-5-yl)-3-(pyridin-4-yl)-1H-pyrazol-1-yl)phenyl)piperazin-1-yl)-4-methylisoindoline-1,3-dione], at BRaf, the DC50 was 10 to 100 nM and the Dmax is 50 to 75%.

At BRD4, `Cc1sc2c(c1C)C(c1ccc(Cl)cc1)=N[C@@H](CC(=O)Nc1ccc(OCCOCCOCCOCCNc3cccc4c3CN([C@H]3CCC(=O)NC3)C4=O)cc1)c1nnc(C)n1-2` [compound 43, 2-((R)-4-(4-chlorophenyl)-2,3,9-trimethyl-6H-thieno[3,2-f][1,2,4]triazolo[4,3-a][1,4]diazepin-6-yl)-N-(4-(2-(2-(2-(2-((1-oxo-2-((R)-6-oxopiperidin-3-yl)isoindolin-4-yl)amino)ethoxy)ethoxy)ethoxy)ethoxy)phenyl)acelamide] came in with a DC50 not below 100 nM and a Dmax of 50 to 75%.

Consider `Cc1sc2c(c1C)C(c1ccc(Cl)cc1)=N[C@@H](CC(=O)Nc1ccc(OCCOCCOCCOCCOc3cccc4c(=O)n(C5CCC(=O)NC5=O)c(C)nc34)cc1)c1nnc(C)n1-2` (stereo partly drawn) [compound 44, 2-((S)-4-(4-chlorophenyl)-2,3,9-trimethyl-6H-thieno[3,2-f][1,2,4]triazolo[4,3-a][1,4]diazepin-6-yl)-N-(4-(2-(2-(2-(2-((3-(2,6-dioxopiperidin-3-yl)-2-methyl-4-oxo-3,4-dihydroquinazolin-8-yl)oxy)ethoxy)ethoxy)ethoxy)ethoxy)phenyl)acetamide], for which, at BRD4, the DC50 is not below 100 nM and the Dmax is less than 50%.

On BRD4, `Cc1sc2c(c1C)C(c1ccc(Cl)cc1)=N[C@@H](CC(=O)Nc1ccc(OCCOCCOCCOCCOc3ccc4c(=O)n(C5CCC(=O)NC5=O)c(C)nc4c3)cc1)c1nnc(C)n1-2` (stereo partly drawn) [compound 45, 2-((S)-4-(4-chlorophenyl)-2,3,9-trimethyl-6H-thieno[3,2-f][1,2,4]triazolo[4,3-a][1,4]diazepin-6-yl)-N-(4-(2-(2-(2-(2-((3-(2,6-dioxopiperidin-3-yl)-2-methyl-4-oxo-3,4-dihydroquinazolin-7-yl)oxy)ethoxy)ethoxy)ethoxy)ethoxy)phenyl)acetamide] displayed a DC50 of 10 to 100 nM and a Dmax not below 75%.

The record behind these values is US12239711B2, “Cereblon ligands and bifunctional compounds comprising the same” (Arvinas Operations, Inc., priority 2014, dated 2025).
